Marks after values point to notes of the source that are not given here.
System: New Zealand Albino rabbits
Assay: Intraocular pressure by applanation pneumatonometry after topical application to one eye
Format: in vivo
Details: 0.1% (w/v) solution, 25 µl to the surface of one eye
Description: Prostaglandin F2α TRIS salt was dissolved in either distilled water or in a 5% aqueous hydroxypropyl-β-cyclodextrin solution, to provide 0.1% (w/v) solutions. Two groups of experimental New Zealand Albino rabbits, containing 6 and 8 rabbits, respectively, were treated by administering 25µℓ of each solution to the surface of one eye. The contralateral eye received vehicle as a control. Intraocular pressure (IOP) was measured by applanation pneumatonometry model (Model 3ORT, manufactured by Digilab) at the time of administration, and at intervals of 1, 2, 3, 4, and 6 hours thereafter.

Prostaglandin F2α TRIS salt [Prostaglandin F2α (in aqueous)]
CHANGES IN INTRAOCULAR PRESSURE (mmHg) AT PREDETERMINED TIMES (HR) (1.0 HR after administration): -6.3* mmHg | CHANGES IN INTRAOCULAR PRESSURE (mmHg) AT PREDETERMINED TIMES (HR) (2.0 HR after administration): -3.0 mmHg | CHANGES IN INTRAOCULAR PRESSURE (mmHg) AT PREDETERMINED TIMES (HR) (3.0 HR after administration): -3.0 mmHg | CHANGES IN INTRAOCULAR PRESSURE (mmHg) AT PREDETERMINED TIMES (HR) (4.0 HR after administration): -1.5 mmHg | CHANGES IN INTRAOCULAR PRESSURE (mmHg) AT PREDETERMINED TIMES (HR) (6.0 HR after administration): 0 mmHg

Source: EP0435682A2, “The use of inclusion complexes of prostaglandins with cyclodextrins in the treatment of ocular hypertension” (ALLERGAN, INC., priority 1989, dated 1991)
